Experimental findings from patent US20200282008A1, “COMPOSITIONS AND METHODS FOR LONG TERM RELEASE OF GONADOTROPIN-RELEASING HORMONE (GnRH) ANTAGONISTS” (VERU INC., priority 2017, published 2020) are described below.

Non-standard residues stand in square brackets, D forms with d. Residues, ends and D or L forms follow the SMILES beside them. dPhe(4-Cl) = N[C@H](Cc1ccc(Cl)cc1)C(=O)O; d2Nal = N[C@H](Cc1ccc2ccccc2c1)C(=O)O; dCit = NC(=O)NCCC[C@@H](N)C(=O)O; d3Pal = N[C@H](Cc1cccnc1)C(=O)O

The subject of this assay is serum testosterone. The experiment in a line: Second rat study: serum testosterone after cetrorelix PLGA formulations. In kind it is in vivo, rats. How it is done: In a second rat study serum testosterone and cetrorelix levels were measured over 12 weeks. […] The formulations found within Table 13 were injected in rats and then the testosterone was measured at 0, 1, 2, 8 and 24 hours and then daily until the end of the first week and then biweekly until week 4 and then weekly thereafter.
FIG. 21 compares the data from the 2nd rat and 1st dog study results for testosterone levels.

Take `CC(=O)N[C@H](Cc1ccc2ccccc2c1)C(=O)N[C@H](Cc1ccc(Cl)cc1)C(=O)N[C@H](Cc1cccnc1)C(=O)N[C@@H](CO)C(=O)N[C@@H](Cc1ccc(O)cc1)C(=O)N[C@H](CCCNC(N)=O)C(=O)N[C@@H](CC(C)C)C(=O)N[C@@H](CCCNC(=N)N)C(=O)N1CCC[C@H]1C(=O)N[C@H](C)C(N)=O` [cetrorelix] (Ac-[d2Nal][dPhe(4-Cl)][d3Pal]SY[dCit]LRP[dA]-NH2): the “cetrorelix level required to inhibit testosterone production” value is 2 ng/mL.
